# Results: patent US7422793B2, “Non-toxic corrosion-protection rinses and seals based on rare earth elements” (University of Dayton, priority 2002, dated 2008)
# Test: not given
# Details: pH 7; cited from earlier work
row,Compound,Solubility in Water
1,[F][Ta-2]([F])([F])([F])([F])([F])[F].[K+].[K+] [Potassium heptafluorotantalate],0.3 mol/L
2,[F-].[F-].[F-].[F-].[F-].[F-].[Na+].[Na+].[Sn+4] [Sodium hexafluorostannate],0.01 mol/L
4,[F][Zr-2]([F])([F])([F])([F])[F].[K+].[K+] [Potassium hexafluorozirconate],0.0812 mol/L
5,[Na+].[Na+].[O-][O-] [Sodium peroxide],1 × 10^0 mole/L
6,Rubidium heptafluorotantalate,0.1 mol/L
7,Cesium tungstate,5 × 10^0 mole/L
8,[Ca+2].[O-][Cl+3]([O-])([O-])[O-].[O-][Cl+3]([O-])([O-])[O-] [Calcium perchlorate],7.9 × 10^0 mole/L
9,Ammonium selenate,6.0 × 10^0 mole/L
10,[F][Nb-2]([F])([F])([F])([F])([F])[F].[K+].[K+] [Potassium heptafluoroniobate],0.26 mol/L
11,[O-][Cl+2]([O-])[O-].[O-][Cl+2]([O-])[O-].[Sr+2] [Strontium chlorate],6.9 × 10^0 mole/L
12,[O-][Cl+2]([O-])[O-].[O-][Cl+2]([O-])[O-].[Zn+2] [Zinc chlorate],8.6 × 10^0 mole/L
13,Magnesium tungstate hydrate,0.72 mol/L
14,Potassium tungstate,142 mol/L

# Test: pH change on placing the compound into deionized water of pH 7
# Assay type: physicochemical
# Details: simple laboratory experiment
# From the text: A simple laboratory experiment confirms this effect. […] However, if icosahedral Ce(NO3)6^2− (note that this ion contains no hydroxide) is placed into deionized water of pH 7, a quite remarkable pH drop to −1 can be observed. The released tetravalent cerium ions will scavenge virtually all of the available OH^− ions in solution (possibly even degrading H2O itself to obtain […]), resulting in this dramatic pH drop.
row,Compound,pH after placing into deionized water of pH 7
1,"O=[N+]([O-])O.O=[N+]([O-])O.O=[N+]([O-])O.O=[N+]([O-])O.O=[N+]([O-])O.O=[N+]([O-])O.[Ce] [Ce(NO3)6^2−, hexanitratocerate (IV)]",−1
2,"[Ce+4].[OH-].[OH-].[OH-].[OH-] [Ce(OH)4, ceric hydroxide, reference compound]",only a minor pH change

# Test: not given
# Details: in acid solution; couple to the trivalent ion; cited from earlier work
row,Compound,oxidation-reduction potential
1,"hexavalent chromium [Cr^+6, reference compound]",+1.36 V
2,"[Ce+4] [Ce^+4, tetravalent cerium ion]",+1.72 V

# Same assay, conditions: in acidic solution; Nugent et al. 1971; cited from earlier work
row,Compound,calculated redox potential
1,"[Pr+4] [Pr^+4, tetravalent praseodymium ion]",+3.2 V
2,"[Tb+4] [Tb^+4, tetravalent terbium ion]",+3.2 V
